# Results from PubChem BioAssay (NCI).
#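 Five concentrations, 48 hours, 96-well plates. GI50 marks 50% less growth. TGI: total growth inhibition.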
# Tests used:
# Assay in all cases: inhibition of tumour cell growth, NCI panel, 48 h
# 786-0 renal = system: 786-0 renal
# A498 renal = system: A498 renal
# A549 NSCLC = system: A549 NSCLC
# ACHN renal = system: ACHN renal
# CAKI-1 renal = system: CAKI-1 renal
# CCRF-CEM leukemia = system: CCRF-CEM leukemia
# COLO 205 colon = system: COLO 205 colon
# DU-145 prostate = system: DU-145 prostate
# EKVX NSCLC = system: EKVX NSCLC
# HCC-2998 colon = system: HCC-2998 colon
# HCT-116 colon = system: HCT-116 colon
# HCT-15 colon = system: HCT-15 colon
# HL-60(TB) leukemia = system: HL-60(TB) leukemia
# HOP-62 NSCLC = system: HOP-62 NSCLC
# HS 578T breast = system: HS 578T breast
# HT29 colon = system: HT29 colon
# IGROV1 ovarian = system: IGROV1 ovarian
# K-562 leukemia = system: K-562 leukemia
# KM12 colon = system: KM12 colon
# LOX IMVI melanoma = system: LOX IMVI melanoma
# M14 melanoma = system: M14 melanoma
# MALME-3M melanoma = system: MALME-3M melanoma
# MDA-MB-231 breast = system: MDA-MB-231 breast
# MDA-MB-435 = system: MDA-MB-435
# MDA-N = system: MDA-N
# MOLT-4 leukemia = system: MOLT-4 leukemia
# NCI-H226 lung = system: NCI-H226 lung
# NCI-H23 lung = system: NCI-H23 lung
# NCI-H460 lung = system: NCI-H460 lung
# NCI-H522 lung = system: NCI-H522 lung
# NCI/ADR-RES ovarian = system: NCI/ADR-RES ovarian
# OVCAR-3 ovarian = system: OVCAR-3 ovarian
# OVCAR-4 ovarian = system: OVCAR-4 ovarian
# OVCAR-5 ovarian = system: OVCAR-5 ovarian
# OVCAR-8 ovarian = system: OVCAR-8 ovarian
# PC-3 prostate = system: PC-3 prostate
# RPMI-8226 leukemia = system: RPMI-8226 leukemia
# RXF 393 renal = system: RXF 393 renal
# SF-268 CNS = system: SF-268 CNS
# SF-295 CNS = system: SF-295 CNS
# SF-539 CNS = system: SF-539 CNS
# SK-MEL-2 melanoma = system: SK-MEL-2 melanoma
# SK-MEL-28 melanoma = system: SK-MEL-28 melanoma
# SK-MEL-5 melanoma = system: SK-MEL-5 melanoma
# SK-OV-3 ovarian = system: SK-OV-3 ovarian
# SN12C renal = system: SN12C renal
# SNB-19 CNS = system: SNB-19 CNS
# SNB-75 CNS = system: SNB-75 CNS
# SR leukemia = system: SR leukemia
# SW-620 colon = system: SW-620 colon
# T-47D breast = system: T-47D breast
# TK-10 renal = system: TK-10 renal
# U251 CNS = system: U251 CNS
# UACC-257 melanoma = system: UACC-257 melanoma
# UACC-62 melanoma = system: UACC-62 melanoma
# UO-31 renal = system: UO-31 renal
# BT-549 breast = system: BT-549 breast
# HOP-92 NSCLC = system: HOP-92 NSCLC
# MCF7 breast = system: MCF7 breast
structure (smiles),measurement,setting,value
NC(=O)NC1=NCCC(=O)N1CCc1c[nH]c2ccccc12,TGI,786-0 renal,> 100 µM
same,TGI,A498 renal,46.1 µM
same,TGI,A549 NSCLC,54.8 µM
same,TGI,ACHN renal,65.1 µM
same,TGI,CAKI-1 renal,6.54 µM
same,TGI,CCRF-CEM leukemia,37.9 µM
same,TGI,COLO 205 colon,27.9 µM
same,TGI,DU-145 prostate,52 µM
same,TGI,EKVX NSCLC,48.6 µM
same,TGI,HCC-2998 colon,44.4 µM
same,TGI,HCT-116 colon,26.4 µM
same,TGI,HCT-15 colon,73 µM
same,TGI,HL-60(TB) leukemia,42.5 µM
same,TGI,HOP-62 NSCLC,37.6 µM
same,TGI,HS 578T breast,80.1 µM
same,TGI,HT29 colon,47.3 µM
same,TGI,IGROV1 ovarian,42.1 µM
same,TGI,K-562 leukemia,32.9 µM
same,TGI,KM12 colon,52.4 µM
same,TGI,LOX IMVI melanoma,26.8 µM
same,TGI,M14 melanoma,29.3 µM
same,TGI,MALME-3M melanoma,36.9 µM
same,TGI,MDA-MB-231 breast,29.4 µM
same,TGI,MDA-MB-435,41.1 µM
same,TGI,MDA-N,60.1 µM
same,TGI,MOLT-4 leukemia,39.1 µM
same,TGI,NCI-H226 lung,39.9 µM
same,TGI,NCI-H23 lung,43.4 µM
same,TGI,NCI-H460 lung,39.5 µM
same,TGI,NCI-H522 lung,52.1 µM
same,TGI,NCI/ADR-RES ovarian,52.8 µM
same,TGI,OVCAR-3 ovarian,47.8 µM
same,TGI,OVCAR-4 ovarian,52.9 µM
same,TGI,OVCAR-5 ovarian,> 100 µM
same,TGI,OVCAR-8 ovarian,32.2 µM
same,TGI,PC-3 prostate,28.3 µM
same,TGI,RPMI-8226 leukemia,50.6 µM
same,TGI,RXF 393 renal,48.3 µM
same,TGI,SF-268 CNS,47 µM
same,TGI,SF-295 CNS,> 100 µM
same,TGI,SF-539 CNS,30.9 µM
same,TGI,SK-MEL-2 melanoma,29.3 µM
same,TGI,SK-MEL-28 melanoma,41.2 µM
same,TGI,SK-MEL-5 melanoma,34.2 µM
same,TGI,SK-OV-3 ovarian,> 100 µM
same,TGI,SN12C renal,54.7 µM
same,TGI,SNB-19 CNS,54.6 µM
same,TGI,SNB-75 CNS,44.5 µM
same,TGI,SR leukemia,57.3 µM
same,TGI,SW-620 colon,57.7 µM
same,TGI,T-47D breast,65.5 µM
same,TGI,TK-10 renal,48.6 µM
same,TGI,U251 CNS,> 100 µM
same,TGI,UACC-257 melanoma,34.6 µM
same,TGI,UACC-62 melanoma,36.9 µM
same,TGI,UO-31 renal,31.8 µM
CC([C@H]1CCC2C3CCC4C(=O)C(NC=O)=CC[C@]4(C)C3CC[C@@]21C)N(C)C (some centres undefined),GI50,786-0 renal,2.48 µM
same,TGI,786-0 renal,7.76 µM
same,GI50,A498 renal,3.83 µM
same,TGI,A498 renal,12.5 µM
same,GI50,A549 NSCLC,3.81 µM
same,TGI,A549 NSCLC,12.7 µM
same,GI50,ACHN renal,4.86 µM
same,TGI,ACHN renal,17.2 µM
same,GI50,BT-549 breast,3.94 µM
same,TGI,BT-549 breast,21.3 µM
same,GI50,CAKI-1 renal,3.79 µM
same,TGI,CAKI-1 renal,33.5 µM
same,GI50,CCRF-CEM leukemia,3.24 µM
same,TGI,CCRF-CEM leukemia,18.7 µM
same,GI50,COLO 205 colon,1.75 µM
same,TGI,COLO 205 colon,3.4 µM
same,GI50,DU-145 prostate,8.07 µM
same,TGI,DU-145 prostate,25.1 µM
same,GI50,EKVX NSCLC,3.01 µM
same,TGI,EKVX NSCLC,50.7 µM
same,GI50,HCC-2998 colon,4.09 µM
same,TGI,HCC-2998 colon,14.7 µM
same,GI50,HCT-116 colon,1.42 µM
same,TGI,HCT-116 colon,3.95 µM
same,GI50,HCT-15 colon,1.42 µM
same,TGI,HCT-15 colon,4.26 µM
same,GI50,HL-60(TB) leukemia,1.86 µM
same,TGI,HL-60(TB) leukemia,4.95 µM
same,GI50,HOP-62 NSCLC,2.01 µM
same,TGI,HOP-62 NSCLC,4.56 µM
same,GI50,HOP-92 NSCLC,4.64 µM
same,TGI,HOP-92 NSCLC,12.7 µM
same,GI50,HS 578T breast,4.6 µM
same,TGI,HS 578T breast,20.8 µM
same,GI50,HT29 colon,0.505 µM
same,TGI,HT29 colon,2.37 µM
same,GI50,IGROV1 ovarian,2.29 µM
same,GI50,K-562 leukemia,0.965 µM
same,TGI,K-562 leukemia,> 23.8 µM
same,GI50,KM12 colon,2.88 µM
same,TGI,KM12 colon,14.2 µM
same,GI50,LOX IMVI melanoma,1.78 µM
same,TGI,LOX IMVI melanoma,4.02 µM
same,GI50,M14 melanoma,2.08 µM
same,TGI,M14 melanoma,4.39 µM
same,GI50,MALME-3M melanoma,2.34 µM
same,TGI,MALME-3M melanoma,5.96 µM
same,GI50,MCF7 breast,2.43 µM
same,TGI,MCF7 breast,14.1 µM
same,GI50,MDA-MB-231 breast,2.36 µM
same,TGI,MDA-MB-231 breast,7.07 µM
same,GI50,MDA-MB-435,2.81 µM
same,TGI,MDA-MB-435,> 29.9 µM
same,GI50,MOLT-4 leukemia,2.55 µM
same,TGI,MOLT-4 leukemia,10.2 µM
same,GI50,NCI-H226 lung,4.72 µM
same,TGI,NCI-H226 lung,19.4 µM
same,GI50,NCI-H23 lung,4.42 µM
same,TGI,NCI-H23 lung,18.7 µM
same,GI50,NCI-H460 lung,2.15 µM
same,TGI,NCI-H460 lung,5.49 µM
same,GI50,NCI-H522 lung,8.2 µM
same,TGI,NCI-H522 lung,> 31.2 µM
same,GI50,NCI/ADR-RES ovarian,6.8 µM
same,TGI,NCI/ADR-RES ovarian,27.2 µM
same,GI50,OVCAR-3 ovarian,2.7 µM
same,TGI,OVCAR-3 ovarian,10.2 µM
same,GI50,OVCAR-4 ovarian,5.12 µM
same,TGI,OVCAR-4 ovarian,26.6 µM
same,GI50,OVCAR-5 ovarian,8.45 µM
same,TGI,OVCAR-5 ovarian,24.9 µM
same,GI50,OVCAR-8 ovarian,6.16 µM
same,TGI,OVCAR-8 ovarian,40.9 µM
same,GI50,PC-3 prostate,2.51 µM
same,TGI,PC-3 prostate,14.5 µM
same,GI50,RPMI-8226 leukemia,2.75 µM
same,TGI,RPMI-8226 leukemia,18 µM
same,GI50,RXF 393 renal,4.66 µM
same,TGI,RXF 393 renal,16.6 µM
same,GI50,SF-268 CNS,2.17 µM
same,TGI,SF-268 CNS,5.48 µM
same,GI50,SF-295 CNS,2.11 µM
same,TGI,SF-295 CNS,5.67 µM
same,GI50,SF-539 CNS,1.58 µM
same,TGI,SF-539 CNS,3.14 µM
same,GI50,SK-MEL-2 melanoma,7.7 µM
same,TGI,SK-MEL-2 melanoma,25.2 µM
same,GI50,SK-MEL-28 melanoma,1.86 µM
same,TGI,SK-MEL-28 melanoma,3.55 µM
same,GI50,SK-MEL-5 melanoma,1.54 µM
same,TGI,SK-MEL-5 melanoma,3.04 µM
same,GI50,SK-OV-3 ovarian,4.03 µM
same,TGI,SK-OV-3 ovarian,12.9 µM
same,GI50,SN12C renal,2.92 µM
same,TGI,SN12C renal,14.9 µM
same,GI50,SNB-19 CNS,8.39 µM
same,TGI,SNB-19 CNS,22.1 µM
same,GI50,SNB-75 CNS,3.66 µM
same,TGI,SNB-75 CNS,15.5 µM
same,GI50,SR leukemia,1.03 µM
same,TGI,SR leukemia,6.5 µM
same,GI50,SW-620 colon,2.13 µM
same,TGI,SW-620 colon,5.54 µM
same,GI50,T-47D breast,1.73 µM
same,TGI,T-47D breast,6.57 µM
same,GI50,TK-10 renal,9.71 µM
same,TGI,TK-10 renal,29.4 µM
same,GI50,U251 CNS,3.43 µM
same,TGI,U251 CNS,15.2 µM
same,GI50,UACC-257 melanoma,4.24 µM
same,TGI,UACC-257 melanoma,10.4 µM
same,GI50,UACC-62 melanoma,1.94 µM
same,TGI,UACC-62 melanoma,3.98 µM
same,GI50,UO-31 renal,1.98 µM
same,TGI,UO-31 renal,7.4 µM
Cn1c(=O)c2[nH]c(Nc3ccccc3)nc2n(C)c1=O,TGI,786-0 renal,> 10 µM
same,TGI,A549 NSCLC,> 10 µM
same,TGI,CAKI-1 renal,> 10 µM
same,TGI,CCRF-CEM leukemia,> 10 µM
same,TGI,COLO 205 colon,> 10 µM
same,TGI,DU-145 prostate,> 10 µM
same,TGI,EKVX NSCLC,> 10 µM
same,TGI,HCC-2998 colon,> 10 µM
same,TGI,HCT-15 colon,> 10 µM
same,TGI,HL-60(TB) leukemia,> 10 µM
same,TGI,HOP-62 NSCLC,> 10 µM
same,TGI,HOP-92 NSCLC,> 10 µM
same,TGI,HT29 colon,> 10 µM
same,TGI,IGROV1 ovarian,> 10 µM
same,TGI,K-562 leukemia,> 10 µM
same,TGI,KM12 colon,> 10 µM
same,TGI,LOX IMVI melanoma,> 10 µM
same,TGI,M14 melanoma,> 10 µM
same,TGI,MALME-3M melanoma,> 10 µM
same,TGI,MCF7 breast,> 10 µM
same,TGI,MDA-MB-231 breast,> 10 µM
same,TGI,MDA-MB-435,> 10 µM
same,TGI,MDA-N,> 10 µM
same,TGI,MOLT-4 leukemia,> 10 µM
same,TGI,NCI-H23 lung,> 10 µM
same,TGI,OVCAR-4 ovarian,> 10 µM
same,TGI,OVCAR-8 ovarian,> 10 µM
same,TGI,PC-3 prostate,> 10 µM
same,TGI,RPMI-8226 leukemia,> 10 µM
same,TGI,RXF 393 renal,> 10 µM
same,TGI,SF-268 CNS,> 10 µM
same,TGI,SF-295 CNS,> 10 µM
same,TGI,SK-MEL-28 melanoma,> 10 µM
same,TGI,SK-MEL-5 melanoma,> 10 µM
same,TGI,SK-OV-3 ovarian,> 10 µM
same,TGI,SN12C renal,> 10 µM
same,TGI,SNB-75 CNS,> 10 µM
same,TGI,SR leukemia,> 10 µM
same,TGI,SW-620 colon,> 10 µM
same,TGI,T-47D breast,> 10 µM
same,TGI,TK-10 renal,> 10 µM
same,TGI,UACC-257 melanoma,> 10 µM
same,TGI,UACC-62 melanoma,> 10 µM
